Data taken from PMC8878452, “A Tale of Toxin Promiscuity: The Versatile Pharmacological Effects of Hcr 1b-2 Sea Anemone Peptide on Voltage-Gated Ion Channels” (Marine Drugs, 2022).
“Also recorded” adds a separate entry of the source. Bridges are numbered along the chain shown (N, C = ends). Where no end group is shown, it is not given here.

Legend:
rKv1.2 = test: TEVC, Kv1.2 in Xenopus oocytes; assay type: cell-based, rat
Description: (§1) For the expression of Kv channels (rKv1.1, rKv1.2, rKv1.3, rKv1.4, rK1.5, rKv1.6, hKv2.1, hKv3.1, rKv4.2, hKv7.1, hKv7.2/7.3, hKv7.4, KQT1 (from the roundworm Caenorhabditis elegans), hKv10.1 (hEAG1), hKv11.1 (hERG1), and Shaker, from Drosophila melanogaster), Nav channels (rNav1.1, rNav1.2, rNav1.3, rNav1.4, hNav1.5, mNav1.6, hNav1.7, hNav1.8, and BgNav (from the cockroach Blattella germanica), as well as the hβ1 and rβ1 subunits, and Cav channels (rCav3.1, hCav3.2, and rCav3.3) in Xenopus oocytes, the linearized plasmids were transcribed using the T7 or SP6 mMESSAGEmMACHINE transcription kit (Ambion, Austin, TX, USA). Mature female animals were purchased from Nasco (Fort Atkinson, WI, USA) and were housed in the Aquatic Facility (KU Leuven) in compliance with the regulations of the European Union (EU) concerning the welfare of laboratory animals as declared in Directive 2010/63/EU. The use of X. laevis oocytes was approved by the Animal Ethics Committee of the KU Leuven, with the license number P186/2019.
(§2) Stage V–VI oocytes were collected from anesthetized female X. laevis frog as previously described, with the frogs anesthetized by placement in a 0.1% tricaine solution (amino benzoic acid ethyl ester; Merck, Kenilworth, NJ, USA). Oocyte microinjection was performed using a microinjector (Drummond Scientifc®, Broomall, PA, USA), with a programmed cRNA injection volume of 4–50 nL, depending on channel subtype. The oocytes were incubated in ND96 solution (96 mM NaCl; 2 mM KCl; 1.8 mM CaCl2; 2 mM MgCl2, and 5 mM HEPES, pH 7.4), supplemented with 50 mg/L of gentamicin sulfate.
(§3) Electrophysiological measurements were performed at room temperature (18–22 °C) using the two-electrode voltage-clamp (TEVC) technique. Data were obtained using a GeneClamp 500 amplifier (Axon Instruments®, Burlingame, CA, USA) and Clampex9 software (Axon Instruments®, USA) was responsible for data acquisition and storage. Glass micropipettes were produced using glass capillaries (borosilicate WPI 1B120-6) and drawn in a WPI (World Precision Instruments®, Sarasota, FL, USA) manual stretcher. The bath and perfusion solutions were either the previously described ND96 (Nav and Kv channels) or calcium-free ND96 supplemented with 10 mM BaCl2 (Cav channels).
(§4) Whole-cell currents of oocytes were recorded 1 to 3 days after RNA injection. The current and voltage electrodes were filled with 3 M KCl, and their resistance was adjusted from 1.0 to 2.5 MΩ. […] The current–voltage relationships were determined by 50 ms step depolarizations between −90 and +65 mV using 5 or 10 mV increments. All electrophysiological data were analyzed following the procedures described by Peigneur et al., 2012 [20].
(§5) All values were expressed as means ± SEM. […]

rKv1.3 = test: TEVC, Kv1.3 in Xenopus oocytes; assay type: cell-based, rat; conditions: 1 µM, ND96 pH 7.4, 18–22 °C, n ≥ 3
Description: as §1, with “P186/2019. […]” for “P186/2019.”
as §4, with “injection.” for “injection. The current and voltage electrodes were filled with 3 M KCl, and their resistance was adjusted from 1.0 to 2.5 MΩ.”
as §5

rKv1.4 = test: TEVC, Kv1.4 in Xenopus oocytes; assay type: cell-based, rat
Description: as §1, §2, §3
(§6) Whole-cell currents of oocytes were recorded 1 to 3 days after RNA injection. The current and voltage electrodes were filled with 3 M KCl, and their resistance was adjusted from 1.0 to 2.5 MΩ. Currents were sampled at 20 kHz (Nav channels) and 10 kHz (Kv and Cav channels) and filtered using a four-pole Bessel low-pass Bessel filter at 1 kHz for sodium and […] for potassium and calcium, except for the hERG ion channel in which the currents were filtered at 1 kHz. Leak subtraction was performed using a P/4 protocol. Kv1.x currents were evoked by 500 ms depolarizations to 0 mV, followed by a 500 ms pulse to −50 mV from a holding potential of −90 mV. Kv2.1, Kv3.1, Kv4.2, Kv7.x, and KQT1 currents were elicited by 700 ms pulses to +20 mV from a holding potential of −90 mV. Current traces of the hERG1 channel were elicited by applying a +40 mV prepulse for 2 s, followed by a step of −120 mV for 2 s. […] The current–voltage relationships were determined by 50 ms step depolarizations between −90 and +65 mV using 5 or 10 mV increments. All electrophysiological data were analyzed following the procedures described by Peigneur et al., 2012 [20].
as §5

Kv1.5 = test: TEVC, Kv1.5 in Xenopus oocytes; assay type: cell-based, rat; conditions: 1 µM, n ≥ 3
Description: as §1, with “P186/2019. […]” for “P186/2019.”
as §4, with “injection.” for “injection. The current and voltage electrodes were filled with 3 M KCl, and their resistance was adjusted from 1.0 to 2.5 MΩ.”
as §5

hKv7.2/7.3 = test: TEVC, Kv7.2/7.3 in Xenopus oocytes; assay type: cell-based, human
Description: as §1, §2, §3, §4, §5

hKv7.4 = test: TEVC, Kv7.4 in Xenopus oocytes; assay type: cell-based, human
Description: as §1, §2, §3, §4, §5

hKv11.1 (hERG1) = test: TEVC, hERG in Xenopus oocytes; assay type: cell-based, human
Description: as §1, §2, §3, §6, §5

hNav1.5 = test: TEVC, Nav1.5 in Xenopus oocytes; assay type: cell-based, human
Description: as §1, §2, §3
(§7) Whole-cell currents of oocytes were recorded 1 to 3 days after RNA injection. The current and voltage electrodes were filled with 3 M KCl, and their resistance was adjusted from 1.0 to 2.5 MΩ. Currents were sampled at 20 kHz (Nav channels) and 10 kHz (Kv and Cav channels) and filtered using a four-pole Bessel low-pass Bessel filter at 1 kHz for sodium and […] for potassium and calcium, except for the hERG ion channel in which the currents were filtered at 1 kHz. Leak subtraction was performed using a P/4 protocol. Kv1.x currents were evoked by 500 ms depolarizations to 0 mV, followed by a 500 ms pulse to −50 mV from a holding potential of −90 mV. Kv2.1, Kv3.1, Kv4.2, Kv7.x, and KQT1 currents were elicited by 700 ms pulses to +20 mV from a holding potential of −90 mV. Current traces of the hERG1 channel were elicited by applying a +40 mV prepulse for 2 s, followed by a step of −120 mV for 2 s. Current traces of hEAG1 were elicited by a 2 s depolarization to 0 mV from a holding potential of −90 mV. Sodium current traces were evoked by a 100 ms depolarization to 0 mV. For Cav channels, current traces were elicited by 700 ms depolarizations to −20 mV from a holding potential of −90 mV. The current–voltage relationships were determined by 50 ms step depolarizations between −90 and +65 mV using 5 or 10 mV increments. All electrophysiological data were analyzed following the procedures described by Peigneur et al., 2012 [20].
(§8) All values were expressed as means ± SEM. Differences in ionic currents between the control and toxin conditions were compared by a one-way ANOVA, followed by Dunnett’s multiple comparisons test. Differences were considered statistically significant when […].

mNav1.6 = test: TEVC, Nav1.6 in Xenopus oocytes; assay type: cell-based, mouse
Description: as §1, §2, §3, §6, §5

rCav3.3 = test: TEVC, Cav3.3 in Xenopus oocytes; assay type: cell-based, rat
Description: as §1, §2, §3, §7, §8

[1] = 1 µM, TEVC, ND96 pH 7.4, 18–22 °C, n ≥ 3
[2] = 1 µM, 100 ms depolarization to 0 mV, mean ± SEM, n ≥ 3
[3] = 1 µM vs control (ND96 Ca2+ free)

## GTPCKCHGYIGVYWFMLAGCPNGYGYNLSCPYFLGICCVKK (disulfide 4-37, 6-30, 20-38 (inferred)) [Hcr 1b-2]
rKv1.2; 1 µM
  gating-modifier effect (voltage-current relationship), Kv1.2: non-significant gating-modifier effect
rKv1.2; 1 µM vs control (ND96)
  Shift in Vhalf activation, Kv1.2: −4.9 mV
rKv1.2; [1]
  effect on potassium current, Kv1.2: activation
rKv1.2; 1 µM, control (ND96) −24.7 ± 0.7, mean ± SEM
  Vhalf activation, Kv1.2: −29.6 ± 0.89 mV
rKv1.3
  effect on potassium current, Kv1.3: inhibition
rKv1.4; 1 µM
  gating-modifier effect (voltage-current relationship), Kv1.4: non-significant gating-modifier effect; also recorded: negligible shift in the midpoint of activation
rKv1.4; 1 µM vs control (ND96)
  Shift in Vhalf activation, Kv1.4: 2.5 mV
rKv1.4; 1 µM, 500 ms depolarization to 0 mV from −90 mV, mean ± SEM, n ≥ 3
  activity (inhibition of current), Kv1.4: 46.9 ± 4.3%
rKv1.4; [1]
  effect on potassium current, Kv1.4: inhibition
rKv1.4; 1 µM, control (ND96) 7.5 ± 0.7, mean ± SEM
  Vhalf activation, Kv1.4: 10.0 ± 0.5 mV
Kv1.5; 500 ms depolarization to 0 mV from −90 mV, mean ± SEM
  activity (inhibition of current), Kv1.5: 41.9 ± 4.7%
Kv1.5; TEVC, ND96 pH 7.4, 18–22 °C
  effect on potassium current, Kv1.5: inhibition
hKv7.2/7.3; 1 µM
  gating-modifier effect (voltage-current relationship), Kv7.2/7.3: non-significant gating-modifier effect
hKv7.2/7.3; 1 µM vs control (ND96)
  Shift in Vhalf activation, Kv7.2/7.3: 1.3 mV
hKv7.2/7.3; [1]
  effect on potassium current, Kv7.2/7.3: inhibition; also recorded: inhibits
hKv7.2/7.3; 1 µM, control (ND96) 14.6 ± 0.5, mean ± SEM
  Vhalf activation, Kv7.2/7.3: 15.9 ± 0.7 mV
hKv7.4; 1 µM
  gating-modifier effect (voltage-current relationship), Kv7.4: stronger shift
hKv7.4; 1 µM vs control (ND96)
  Shift in Vhalf activation, Kv7.4: 7.1 mV
hKv7.4; [1]
  effect on potassium current, Kv7.4: inhibition; also recorded: inhibits
hKv7.4; 1 µM, control (ND96) 3.8 ± 0.3, mean ± SEM
  Vhalf activation, Kv7.4: 10.9 ± 0.3 mV
hKv11.1 (hERG1); 1 µM
  gating-modifier effect (voltage-current relationship), hERG: stronger shift; also recorded: strong shift towards more positive potentials; also recorded: significantly shift the current-voltage relationship of hERG
hKv11.1 (hERG1); 1 µM, TEVC, ND96 pH 7.4, 18–22 °C, n = 3
  effect on potassium current, hERG: inhibition; also recorded: strong hERG modulator
hKv11.1 (hERG1); 1 µM, peak current, control (ND96) −13.7 ± 0.5, mean ± SEM, n = 3
  Vhalf activation, hERG (peak): 12.6 ± 0.4 mV
hKv11.1 (hERG1); 1 µM, tail current, control (ND96) −22.9 ± 0.6, mean ± SEM, n = 3
  Vhalf activation, hERG (tail): 0.6 ± 0.7 mV
hKv11.1 (hERG1); human, Xenopus laevis oocytes expressing hKv11.1 (hERG1), pH 7.4, +40 mV prepulse 2 s, then −120 mV 2 s, mean ± SEM, n = 3, read-out: activity (inhibition of current), hERG
  inhibition at 1 µM: 51.7 ± 7.6%
hNav1.5; 1 µM
  effect on activation or inactivation, Nav1.5: no significant effect
hNav1.5; 1 µM vs control (ND96)
  Shift in Vhalf activation, Nav1.5: 3.8 mV
  Shift in Vhalf inactivation, Nav1.5: −3.2 mV
hNav1.5; [2]
  reduction of peak amplitude (INa), Nav1.5: 41.6 ± 5.9%
hNav1.5; 1 µM, control (ND96) −38.5 ± 0.1, mean ± SEM, n ≥ 3
  Vhalf activation, Nav1.5: −34.7 ± 0.1 mV
hNav1.5; 1 µM, control (ND96) −66.0 ± 0.2, mean ± SEM, n ≥ 3
  Vhalf inactivation, Nav1.5: −69.2 ± 0.2 mV
mNav1.6; 1 µM vs control (ND96)
  Shift in Vhalf activation, Nav1.6: 3.5 mV
  Shift in Vhalf inactivation, Nav1.6: −7.6 mV
mNav1.6; [2]
  reduction of peak amplitude (INa), Nav1.6: 41.8 ± 7.1%
mNav1.6; 1 µM, control (ND96) −23.5 ± 0.1, mean ± SEM, n ≥ 3
  Vhalf activation, Nav1.6: −20.0 ± 0.1 mV
mNav1.6; 1 µM, control (ND96) −49.1 ± 0.3, mean ± SEM, n ≥ 3
  Vhalf inactivation, Nav1.6: −56.7 ± 0.4 mV
rCav3.3; [3]
  Shift in Vhalf activation, Cav3.3: −2.2 mV
  Shift in Vhalf inactivation, Cav3.3: −2.1 mV
rCav3.3; 1 µM, Cav3.3 vs Cav3.1
  higher activity on Cav3.3 than on Cav3.1: 9 fold
rCav3.3; 1 µM, Cav3.3 vs Cav3.2
  higher activity on Cav3.3 than on Cav3.2: 1.6 fold
rCav3.3; 1 µM, calcium-free ND96 + 10 mM BaCl2, 700 ms depolarization to −20 mV from −90 mV, mean ± SEM, n ≥ 3
  inhibition, Cav3.3: 58.9 ± 9.4%
rCav3.3; 1 µM, control (ND96 Ca2+ free) −41.7 ± 0.4, mean ± SEM, n ≥ 3
  Vhalf activation, Cav3.3: −43.9 ± 0.5 mV
rCav3.3; 1 µM, control (ND96 Ca2+ free) −47.6 ± 0.2, mean ± SEM, n ≥ 3
  Vhalf inactivation, Cav3.3: −49.7 ± 0.3 mV
